EC50 data for 13 molecules are collected here from patent US8785445B2 (Array BioPharma Inc., priority 2008, dated 2014).

For one assay, the target named is T1, human DP2 (Homo sapiens, UniProt Q9Y5Y4).
T1 construct: expressed in transfected cells; membranes prepared
T1 sequence (Q9Y5Y4 1-395): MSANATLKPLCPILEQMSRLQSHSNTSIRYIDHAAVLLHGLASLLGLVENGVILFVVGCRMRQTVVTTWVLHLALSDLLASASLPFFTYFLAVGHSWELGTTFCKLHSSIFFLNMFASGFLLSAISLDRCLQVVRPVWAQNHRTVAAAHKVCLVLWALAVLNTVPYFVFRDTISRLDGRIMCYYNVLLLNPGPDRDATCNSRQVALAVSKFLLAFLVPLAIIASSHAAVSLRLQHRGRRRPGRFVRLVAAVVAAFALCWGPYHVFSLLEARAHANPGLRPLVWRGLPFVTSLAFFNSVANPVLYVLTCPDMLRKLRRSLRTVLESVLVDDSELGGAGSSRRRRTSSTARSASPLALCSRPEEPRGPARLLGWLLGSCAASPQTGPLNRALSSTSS
Put plainly: DP-2 binding inhibition assay (3H-PGD2, membranes of DP2-expressing K562 cells). Particulars: 0.1% BSA, read-out: EC50 (nM) 0.1% BSA. The procedure, abridged: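 Displacement of 3H-PGD2 was measured by filtration and scintillation counting after 60 min at room temperature, using membranes of DP2-transfected K562 cells in 0.1% BSA, 1% HSA or 4% HSA.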
Broadly, the EC50 is the concentration giving half of the maximal effect. Take `N#Cc1cc2c(cc1Oc1ccc(C(=O)Nc3ccc4ncoc4c3)cc1)OCCC2C(=O)O` (stereo not shown) [Example 188, 7-(4-(benzo[d]oxazol-6-ylcarbamoyl)phenoxy)-6-cyanochroman-4-carboxylic acid]: the EC50 turned out to be 301 nM.

Staying with this assay, now noted: 4% HSA, read-out: EC50 (nM) 4% HSA.
Turning to `Cc1cccc2ccc(NC(=O)c3ccc(Oc4cc5c(cc4Cl)C(C(=O)O)CCO5)cc3)nc12` (stereo not shown) [Example 24, 6-Chloro-7-(4-(8-methylquinolin-2-ylcarbamoyl)phenoxy)chroman-4-carboxylic acid], the EC50 amounted to 764 nM. Same read-out and setting: then `O=C(Nc1ccc(-c2ccc(F)cc2F)nn1)c1ccc(Oc2cc3c(cc2Cl)C(C(=O)O)CCO3)cc1` (stereo not shown) [Example 71, Sodium 6-chloro-7-(4-(6-(2,4-difluorophenyl)pyridazin-3-ylcarbamoyl)phenoxy)chroman-4-carboxylate], with 1510 nM. The same measure, in the same setting: then `O=C(Nc1ccn(-c2ccc(F)c(F)c2)n1)c1ccc(Oc2cc3c(cc2Cl)C(C(=O)O)CCO3)cc1` (stereo not shown) [Example 166, 6-chloro-7-(4-(1-(3,4-difluorophenyl)-1H-pyrazol-3-ylcarbamoyl)phenoxy)chroman-4-carboxylic acid], with 85.1 nM. Same read-out and setting: for `O=C(Nc1cccc(C(F)(F)F)n1)c1ccc(Oc2cc3c(cc2Cl)C(C(=O)O)CCO3)cc1` (stereo not shown) [Example 28, 6-Chloro-7-(4-(6-(trifluoromethyl)pyridin-2-ylcarbamoyl)phenoxy)chroman-4-carboxylic acid] the value was 187 nM; for `COc1cccc(CCNC(=O)c2ccc(Oc3cc4c(cc3Cl)C(C(=O)O)CCO4)cc2)n1` (stereo not shown) [Example 218, 6-chloro-7-(4-(2-(6-methoxypyridin-2-yl)ethylcarbamoyl)phenoxy) chroman-4-carboxylic acid], 404 nM. Regarding `O=C(Nc1nccc(-c2cccc(C(F)(F)F)c2)n1)c1ccc(Oc2cc3c(cc2Cl)C(C(=O)O)CCO3)cc1` (stereo not shown) [Example 131, 6-Chloro-7-(4-(4-(3-(trifluoromethyl)phenyl)pyrimidin-2-ylcarbamoyl)phenoxy)chroman-4-carboxylic acid], the EC50 came to 128 nM.

Consider `O=C(Nc1cccc(-c2cccc(F)c2F)n1)c1ccc(Oc2cc3c(cc2Cl)C(C(=O)O)CCO3)cc1` (stereo not shown) [Example 90, 6-chloro-7-(4-(6-(2,3-difluorophenyl)pyridin-2-ylcarbamoyl)phenoxy)chroman-4-carboxylic acid], for which the concentration for a half-maximal effect (EC50) amounted to 166 nM. Turning to `O=C(Nc1cccc(-c2ccnc(C(F)(F)F)c2)n1)c1ccc(Oc2cc3c(cc2Cl)C(C(=O)O)CCO3)cc1` (stereo not shown) [Example 113, 6-Chloro-7-(4-(2′-(trifluoromethyl)-2,4′-bipyridin-6-ylcarbamoyl)phenoxy)chroman-4-carboxylic acid], the EC50 came to 452 nM. `O=C(Nc1ccc2cc(Cl)ccc2n1)c1ccc(Oc2cc3c(cc2Cl)[C@H](C(=O)O)CCO3)cc1` (single isomer, unassigned; enantiomer 1) [Example 36, 6-Chloro-7-(4-(6-chloroquinolin-2-ylcarbamoyl)phenoxy)chroman-4-carboxylic acid, Enantiomer 1]: the EC50 worked out at 84 nM.

With `Cc1ccc(-c2cccc(NC(=O)c3ccc(Oc4cc5c(cc4C#N)C(C(=O)O)CCO5)cc3)n2)cc1C` (stereo not shown) [Example 13, 6-Cyano-7-(4-(6-(3,4-dimethylphenyl)pyridin-2-ylcarbamoyl)phenoxy)chroman-4-carboxylic acid], the EC50 is 45.1 nM. Take `O=C(Nc1nccc(-c2ccc(Cl)cc2)n1)c1ccc(Oc2cc3c(cc2Cl)C(C(=O)O)CCO3)cc1` (stereo not shown) [Example 132, 6-Chloro-7-(4-(4-(4-chlorophenyl)pyrimidin-2-ylcarbamoyl)phenoxy)chroman-4-carboxylic acid]: the EC50 came to 128 nM. On the same count and under the same terms, then `O=C(Nc1cccc(-c2ccc(Cl)c(Cl)c2)n1)c1ccc(Oc2cc3c(cc2Cl)C(C(=O)O)CCO3)cc1` (stereo not shown) [Example 52, 6-Chloro-7-(4-(6-(3,4-dichlorophenyl)pyridin-2-ylcarbamoyl)phenoxy)chroman-4-carboxylic acid], with 50.8 nM.
